These are literature values, as cited in article PMC7845544 (Frontiers in Pharmacology, 2021).

Usually EC50 stands for the concentration giving half of the maximal effect.

One data set relates to human FSHR. Set-up: method as in Gerrits et al., 2016. The settings on record: ref Gerrits et al., 2016; read-out: human FSHR-AA EC50; cited from earlier work.
For a further data set, the system named is monkeys. Set-up: method as in Gerrits et al., 2016. The settings on record: ref Gerrits et al., 2016, cited from earlier work.
For the next data set, the target named is TSH receptor. Also noted: method as in Gerrits et al., 2016. The note with it: ref Gerrits et al., 2016, cited from earlier work.
The subject of another data set is women. Also noted: method as in Gerrits et al., 2016. The note with it: up to 40 mg/day; ref Gerrits et al., 2016; cited from earlier work.
On the set-up of data set [1]: method as in Ghobadi et al., 2009. The note with it: ref Ghobadi et al., 2009; cited from earlier work.

Some results are limits rather than exact numbers.

For the compound `COc1cc2c(cc1CC(C)C)-c1c(-c3cccs3)cc(C(=O)N(C)C(C)(C)C)n1CC2` [MK-8389], the EC50 in the data set on human FSHR is 4.2 nM. In addition, in the data set with monkeys, the “dose for thyroid follicular cell hypertrophy” value is reported as 23 mg/kg; the “fold separation between ovarian and thyroid stimulation” value is reported as 10 fold. Besides, the “dose required for folliculogenesis” value with monkeys (twice daily) is reported as 2.25 mg/kg. In addition, the half-maximal effective concentration (EC50) at TSH receptor (read-out: TSH receptor EC50) is 340 nM. In the data set with TSH receptor, the TSHR/FSHR is listed as 81. Moreover, the “follicular growth in human phase one study” value in the data set on women is on record as “failed to induce follicular growth”.

Turning to `CCN(CC)CCOc1ccc(C(=C(Cl)c2ccccc2)c2ccccc2)cc1` [clomiphene], the elimination from blood in data set [1] is given as at least 72 h.
